Where two headings read alike, the source gives them in different places.
Experiments:
Aldara-treated mice = experiment: Aldara-induced model of psoriasis in mice, clinical scoring (PASI); format: in vivo, mice (C57BL/6J); settings: for PASI scores: relative to Vehicle; for inflammation in the mouse psoriasis model: summary statement in RESULTS
Protocol: Specific Pathogen-Free female C57BL/6J strain mice, 6-8 weeks of age, were obtained from a commercial supplier and bred in-house (JAX, Charles River). Mice were fed irradiated diet and housed in individually ventilated cages (Tecniplast, UK) under positive pressure. All animal experiments were performed in compliance with the Health Products Regulatory Authority and approved by the Trinity College Dublin's BioResources ethical review board.
The Aldara-induced model of psoriasis was used (Flutter and Nestle, 2013; Morwietz, 2015; Russell et al., 2013; van der Fits et al., 2009). The dorsal skin of mice was shaved and depilated on day −1. Mice were that were in the telogen phase (resting phase) of the hair cycle were chosen for experiments. Mice with visual skin damage from shaving were excluded. Mice were then randomly divided into groups for treatment with topical application of vehicle (white petroleum jelly) or Solvotrin test compounds, prepared in white petroleum jelly. On day 0, mice were scored for disease signs, as per below. After which 62.5 mg of Aldara™ cream (5% Imiquimod; MEDA Pharmaceuticals) was applied to a defined area of the shaved dorsal skin surface. Thirty minutes after the Aldara application, test compounds or vehicle was applied to the dorsal flank, to cover the entire Aldara-challenged surface, with an even layer of the white petroleum. This process was repeated for a further 5 days. Mice were scored daily. On day 6 the mice were euthanized for tissue collection.
The skin of mice was scored for signs of psoriasis-like inflammation for a total of 7 days, (i.e. days 0-6), as described (van der Fits et al., 2009). Mice were scored according to 3 parameters: erythema (the redness of skin); thickening of the skin; and scaling (dryness and flaking of the skin). For each parameter, the mice were scored on a scale from 0-4. Mice with no pathology were scored 0. Mice with mild pathology scored 1. […] The total, or Psoriasis Area and Severity Index (PASI), score was the cumulative score of all three parameters. Therefore for each mouse studied the PASI score can range between 0 to 12.
Power calculations on data from previous studies have shown that a sample size of at least 6 will detect significant difference (P<0.05) in PASI scores between groups. ANOVA and Dunnett Multiple Comparison Test determined statistical differences between multiple groups. Two tailed Student's t-test was used to compare statistical differences between two groups.
Unless otherwise specified percentage concentration of a test compound in a composition refers to the weight percent of said test compound in the composition. For example, application of 2% compound X, means application of a composition comprising 2 weight percent of compound X.

[1] = Log P from reversed-phase TLC Rf/Rm values (MeOH in water mobile phases); settings: for Rm: calculated from Rf
Protocol: The partition coefficient (P) is used to describe the lipophilicity of a drug. It is defined as the ratio of equilibrium concentrations of a drug in an organic phase (Corg) and an aqueous phase (Caq).
Most commonly the organic solvent is n-octanol and the other solvent is water. Hydrophobic molecules will have a high P value while hydrophilic molecules will have a low P value.
Rm values were calculated from Rf values that were obtained at three different mobile phase compositions (40, 50 and 60% MeOH in water).
The Rm value was calculated using the following equation: […]
The theoretical Rm value at 0% organic modifier was calculated by extrapolating from the calibration curves that were obtained. These values were then correlated to the literature log P of two reference compounds (methyl benzoate and paracetamol).

IMQ on mouse skin = settings: topical; cited from earlier work
[2] = literature log P of reference compounds; cited from earlier work
normal healthy skin = experiment: Assessment of erythema and itchiness after topical application to shaved forearm; format: in vivo
Protocol: Test article dispersed in petroleum jelly was applied to a 2×2 cm patch of shaved forearm (n=3). At specified time intervals the degree of erythema was recorded by blinded observers on a scale of 1-4 (n=3). Itchiness was observed by scratching behaviour also by blinded observers on a scale of 1-4. The time course of erythema resolution was recorded at 30 minute intervals.

[3] = 3% in petroleum jelly, statistically significant (P<0.05) only on day 3
[4] = 3% in petroleum jelly, vs Vehicle
[5] = theoretical Rm at 0% organic modifier
[6] = in petroleum jelly (concentration not given), vs Vehicle

| Structure (SMILES) | Extrapolated Rm (y value) [1] | Log P (calculated) [1] | Rf ([1]; 40% MeOH in water) | Rm ([1]; 40% MeOH in water) | Rf ([1]; 50% MeOH in water) | Rm ([1]; 50% MeOH in water) | Rf ([1]; 60% MeOH in water) | Rm ([1]; 60% MeOH in water) | also measured |
| --- | --- | --- | --- | --- | --- | --- | --- | --- | --- |
| CC(=O)Oc1ccccc1C(=O)OC1COC2C(OC(=O)c3ccccc3O)COC12 (centres unmarked) [ST0701, Isosorbide-2-aspirinate-5-salicylate] |  |  |  |  |  |  |  |  | PASI scores (Aldara-treated mice; [3]): reduced the PASI scores; erythema (Aldara-treated mice; [4]): reduced levels of elevated skin thickness and erythema; skin thickness (Aldara-treated mice; [4]): reduced levels of elevated skin thickness; inflammation in the mouse psoriasis model (Aldara-treated mice): did not inhibit inflammation |
| O=C(OC1COC2C(OC(=O)c3cccnc3)COC12)c1ccccc1 (centres unmarked) [Isosorbide-2-Benzoate-5-nicotinate, Isosorbide 2-benzoate-5-nicotinate] | 3.5292 | 4.7555 | 0.0260 | 1.5736 | 0.0870 | 1.0210 | 0.2060 | 0.5860 |  |
| CCOC(=O)c1ccc(C#Cc2ccc3c(c2)C(C)(C)CCS3)nc1 [tazarotene] |  |  |  |  |  |  |  |  | IMQ-induced increased thickness of epidermal and subcutaneous tissue (IMQ on mouse skin): exacerbated; thickness reduction (IMQ on mouse skin): ineffective |
| O=[N+]([O-])O[C@@H]1CO[C@H]2[C@@H]1OC[C@@H]2O [ISMN, isosorbide mononitrate, reference compound] |  |  | 0.6060 | −0.1870 | 0.6530 | −0.2746 | 0.7000 | −0.3680 | Log P (calculated) ([1]; from extrapolated Rm correlated to literature log P of methyl benzoate and paracetamol): −0.333; Extrapolated Rm (y value) [1, 5]: 0.176 |
| CC(=O)Nc1ccc(O)cc1 [Paracetamol, paracetamol, reference compound] |  |  | 0.5460 | −0.0801 | 0.6270 | −0.2256 | 0.7460 | −0.4679 | Extrapolated Rm (y value) [1, 5]: 0.7116; Log P (ref) [2]: 0.48 (2) |
| O=C(O)c1cccnc1 [niacin] |  |  |  |  |  |  |  |  | temporal erythema response (normal healthy skin; 5% in petroleum jelly): persisted in the niacin case up to six hours; skin irritation (normal healthy skin; in vivo): causes skin irritation |
| C=C1/C(=C\C=C2/CCC[C@]3(C)[C@@H]([C@H](C)/C=C/[C@@H](O)C4CC4)CC[C@@H]23)C[C@@H](O)C[C@@H]1O [calcipotriol] |  |  |  |  |  |  |  |  | cumulative irritancy score (irritancy/erythema) (normal healthy skin; 0.005%): did cause erythema; IMQ-induced increased thickness of epidermal and subcutaneous tissue (IMQ on mouse skin): exacerbated; thickness reduction (IMQ on mouse skin): ineffective |
| C[C@H]1C[C@H]2[C@@H]3CCC4=CC(=O)C=C[C@]4(C)[C@@]3(F)[C@@H](O)C[C@]2(C)[C@@]1(O)C(=O)CCl [clobetesol] |  |  |  |  |  |  |  |  | thickness reduction (IMQ on mouse skin): best |
| COC(=O)c1ccccc1 [Methyl Benzoate, methyl benzoate, reference compound] |  | 2.2 | 0.1460 | 0.7671 | 0.1867 | 0.6391 | 0.3600 | 0.2499 | Extrapolated Rm (y value) [1, 5]: 1.845; Log P (ref) [2]: 2.2 (1) |
| CC(=O)Oc1ccccc1C(=O)O[C@H]1CO[C@H]2[C@@H]1OC[C@H]2OC(=O)c1ccncc1 [ST0703, Isosorbide-2-aspirinate-5-isonicotinate] |  |  |  |  |  |  |  |  | PASI scores (Aldara-treated mice; [3]): reduced the PASI scores; erythema (Aldara-treated mice; [4]): reduced levels of elevated skin thickness and erythema; skin thickness (Aldara-treated mice; [4]): reduced levels of elevated skin thickness; inflammation in the mouse psoriasis model (Aldara-treated mice): did not inhibit inflammation |
| O=C(O)c1ccccc1O [salicylic acid] |  |  |  |  |  |  |  |  | cumulative irritancy score (irritancy/erythema) (normal healthy skin; 2%): did cause erythema |
| O=C(O[C@@H]1CO[C@H]2[C@@H]1OC[C@@H]2OC(=O)c1ccccc1O)c1cccnc1 [ST0702Sal, Isosorbide-2-salicylate-5-nicotinate] |  |  |  |  |  |  |  |  | PASI scores (Aldara-treated mice; in petroleum jelly (concentration not given), days 4, 5 and 6): significantly reduced; Aldara-induced scaling (Aldara-treated mice; [6]): significantly (P<0.001) reduced; erythema (Aldara-treated mice; [6]): not altered; skin thickness (Aldara-treated mice; [6]): not altered |
| CCC(=O)OC1COC2C(OC(=O)c3cccnc3)COC12 (centres unmarked) [Isosorbide-2-Propionate-5-nicotinate, Isosorbide 2-propionate-5-nicotinate] | 1.9553 | 2.367 | 0.1600 | 0.7202 | 0.2730 | 0.4254 | 0.4400 | 0.1047 |  |
| CC(=O)OC1COC2C(OC(=O)c3cccnc3)COC12 (centres unmarked) [Isosorbide-2-Acetate-5-nicotinate, Isosorbide 2-acetate-5-nicotinate] | 1.2763 | 1.3369 | 0.2860 | 0.3973 | 0.3730 | 0.2256 | 0.5200 | −0.0348 |  |
| CCCCC(=O)O[C@H]1CO[C@H]2[C@@H]1OC[C@H]2OC(=O)c1cccnc1 [Isosorbide-2-Valeroate-5-nicotinate, Isosorbide 2-valeroate-5-nicotinate] | 2.9143 | 3.8225 | 0.0530 | 1.2521 | 0.1200 | 0.8653 | 0.2730 | 0.4254 |  |
| CCCC(=O)O[C@H]1CO[C@H]2[C@@H]1OC[C@H]2OC(=O)c1cccnc1 [Isosorbide-2-Butyrate-5-nicotinate, Isosorbide 2-butyrate-5-nicotinate] | 2.2483 | 2.8118 | 0.1060 | 0.9260 | 0.2067 | 0.5841 | 0.3530 | 0.2631 |  |

— patent publication US11179380B2, “Compounds and compositions for use in treating psoriasis” (SOLVOTRIN THERAPEUTICS LTD, priority 2017, dated 2021)
